Measurements from patent US20100292229A1, “TRYPHOSTIN-ANALOGS FOR THE TREATMENT OF CELL PROLIFERATIVE DISEASES” (The Board of Regents of the University of Texas System, priority 2006, published 2010).

Tests used:
[1] = test system: Normal dermal human fibroblasts (NDF); assay: Growth/survival and MTT assay of normal dermal fibroblasts; assay type: cell-based
Description: Normal dermal human fibroblasts were treated for 1 h at 5 μM Degrasyn before cells were rinsed and cultured in normal growth media for 72 h. Control and treated cells were photographed after 72 h. […] An MTT assay was performed with NDF and A375 cells under these conditions (1 h treatment, 72 h incubation) to estimate the IC50 distinctions between these populations.
MTT (viability) assay. MTT reagent (20 μl of 5 mg/ml stock solution, Sigma) is added to the cells and the plates are incubated at 37° C. for another 2 h. Cells are lysed by adding 100 μl of lysis buffer (20% SDS in 50% N,N-dimethylformamide (Sigma) adjusted to pH 4.7 by 80% acetic acid and 1 M HCl such that the final concentration of acetic acid is 2.5% and HCl is 2.5%) into each well and incubated for 6 h. The OD570 of each sample is determined by using a SPECTRA MAX M2 plate reader (Molecular Devices). The OD in control and treated wells is used as an estimate of the effect of compounds on cell growth and survival.
Cell lines. […] A375 melanoma cells were grown and maintained in the same media. […]

[2] = target: T1, nucleophosmin (NPM) (Homo sapiens, UniProt P06748); assay: Affinity recovery of Degrasyn interactive proteins with streptavidin beads; assay type: binding; conditions: MM-1 or K562 cell lysates
T1 construct: endogenous in cells; host or cells: MM-1 and K562 cell lysates
Description: Biotinylated-Degrasyn (10 μM) was incubated with lysates from MM-1 cells (10 mg total protein) and interactive proteins were assessed by affinity recovery using Streptavidin-conjugated beads to bind biotinylated-Degrasyn. Free Degrasyn (10 μM) was incubated with biotinylated-Degrasyn in a parallel experiment to assist in identifying specific protein:Degrasyn interactions. Affinity complexes were washed and Streptavidin-Bio-Deg interaction proteins were assessed by disrupting protein complexes with SDS-sample buffer and resolving proteins by SDS-PAGE. The resolved proteins were detected by silver-staining the gel. Protein bands present in the biotinylated-Degrasyn sample that were absent in samples co-incubated with free Degrasyn were identified and cut from the gel. A 38 kDa protein band was prominent in this assessment and was subjected to in gel trypsinization and identification of HPLC resolved tryptic peptides by tandem mass spectroscopy analysis (David Hawke, Department of Molecular Pathology, M.D. Anderson Cancer Center). This analysis identified nucleophosmin (NPM) as a Degrasyn interactive protein.
To further assess the interaction between NPM and Degrasyn, biotinylated-Degrasyn/streptavidin beads were incubated with MM-1 (left) or K562 (right) cell lysates. In parallel, lysates were co-incubated with free Degrasyn to determine the specificity of the interaction with NPM. […]

[3] = target: T2, BCR-ABL (T315I) (Homo sapiens, UniProt P00519, T315I); assay: pBCR-ABL and BCR-ABL immunoblot in BV-173R cells; assay type: cell-based; parameters: dose or concentration left out as unconfirmed; conditions: 1 h
T2 construct: endogenous in cells; host or cells: BV-173R; the other entry of the earlier key: BCR (P11274, Breakpoint cluster region protein)
Description: Actin was probed as protein loading control.
Western Blot analysis. […] Western blotting was performed using specific primary antibodies Peroxidase-conjugated affiniPure anti-Mouse Anti-Rabbit secondary antibodies (Jackson Immunoresearch Laboratories, West Grove, Pa.). The proteins were visualized with ECL Plus reagents (Amersham Biosciences).

[4] = test system: BV-173R cells (T315I BCR-ABL); assay: MTT assay after 72 h, BV-173R cells; assay type: cell-based, human; conditions: 72 h of drug incubation

T1 sequence (P06748 whole entry): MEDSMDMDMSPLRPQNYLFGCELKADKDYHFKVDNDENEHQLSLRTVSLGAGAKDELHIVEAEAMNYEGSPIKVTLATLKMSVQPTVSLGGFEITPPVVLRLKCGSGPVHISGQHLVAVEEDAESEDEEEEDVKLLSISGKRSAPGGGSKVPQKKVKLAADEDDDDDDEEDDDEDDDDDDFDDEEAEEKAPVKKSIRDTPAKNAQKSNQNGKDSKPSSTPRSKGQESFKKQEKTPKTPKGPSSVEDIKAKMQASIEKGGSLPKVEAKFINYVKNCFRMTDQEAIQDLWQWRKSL

CCC[C@H](NC(=O)/C(C#N)=C/c1cccc(Br)n1)c1ccccc1 [Degrasyn]
Growth or survival of normal dermal fibroblasts ([1]; 5 μM for 1 h, then 72 h in normal growth media): did not affect the growth or survival of NDFs
Activity against melanoma tumors relative to normal dermal fibroblast ([1]; A375 vs NDF, MTT, 1 h treatment, 72 h incubation): > 5 fold
Interaction with NPM [2]: interacts with NPM
pBCR-ABL and BCR-ABL protein levels, BV-173R [3]: reduced BCR-ABL protein levels in both w/t and mutant BCR-ABL expressing cells
Activity in MTT assay, BV-173R vs BV-173 [4]: equally active against both cell types
